# Patent US8173808B2, “Substituted naphthalenyl-pyrimidine compounds” (ArQule, Inc., priority 2009, dated 2012)
# Key:
# DLD-1 = test: MTS assay, DLD-1; assay type: cell-based; conditions: Homo sapiens, 72 hours, 1 Percent FBS
# Procedure: (§1) Cells were maintained at 37° C., 5% CO2 in DMEM media supplemented with 1% fetal bovine serum, penicillin/streptomycin and fungizone (Invitrogen). Cells were seeded into 96-well tissue culture plates at 3000 per well and cultured at 37° C. for 18 hours. Test compounds were dissolved and diluted to 300× in DMSO then diluted 1:40 in DMEM. Cells were incubated with test compounds for 72 hours followed by incubation with tetrazolium compound (3-(4,5-dimethylthiazol-2-yl)-5-(3-carboxymethoxyphenyl)-2-(4-sulfophenyl)-2H-tetrazolium, inner salt; MTS) and the electron coupling reagent, phenazine methosulfate (PMS) for 4 hours. […] The ability of compounds to inhibit cell growth in this assay is correlated with the reduction of dehydrogenase enzyme activity found in metabolically active cells. The measurement of the absorbance of the formazan was assessed using a Victor (Perkin Elmer) microplate reader at 492 nm. The calculated IC50 value is the concentration of the test compound that causes a 50% decrease in the absorbance.
# MDA-MB-231 = test: MTS assay, MDA-MB-231; assay type: cell-based; conditions: Homo sapiens, 72 hours, 1 Percent FBS
# Procedure: as §1
SMILES,inhibition at 10 µM (DLD-1) [%],inhibition at 10 µM (MDA-MB-231) [%]
"CNc1nccc(-c2cc(NC(=O)CN3CCN(CCc4cccs4)CC3)c3cc(OC)ccc3c2)n1 [Compound 46, N-{7-methoxy-3-[2-(methylamino)pyrimidin-4-yl]-1-naphthyl}-2-{4-[2-(2-thienyl)ethyl]piperazin-1-yl}acetamide]",99,99
"CNc1nccc(-c2cc(NC(=O)CNCC(C)(C)CO)c3cc(OC)ccc3c2)n1 [Compound 50, N~2~-(3-hydroxy-2,2-dimethylpropyl)-N-{7-methoxy-3-[2-(methylamino)pyrimidin-4-yl]-1-naphthyl}glycinamide]",97,94
"CCCCN(C)CCNCC(=O)Nc1cc(-c2ccnc(NC)n2)cc2ccc(OC)cc12 [Compound 51, N~2~-{2-[butyl(methyl)amino]ethyl}-N-{7-methoxy-3-[2-(methylamino)pyrimidin-4-yl]-1-naphthyl}glycinamide]",98,93
"CNc1nccc(-c2cc(NC(=O)CN3CCN(CC(=O)N(C)C)CC3)c3cc(OC)ccc3c2)n1 [Compound 52, 2-{4-[2-({7-methoxy-3-[2-(methylamino)pyrimidin-4-yl]-1-naphthyl}amino)-2-oxoethyl]piperazin-1-yl}-N,N-dimethylacetamide]",99,96
"CNc1nccc(-c2cc(NC(=O)CNCCOC(C)C)c3cc(OC)ccc3c2)n1 [Compound 53, N~2~-(2-isopropoxyethyl)-N-{7-methoxy-3-[2-(methylamino)pyrimidin-4-yl]-1-naphthyl}glycinamide]",92,81
"CNc1nccc(-c2cc(NC(=O)CNc3cccnc3)c3cc(OC)ccc3c2)n1 [Compound 54, N-{7-methoxy-3-[2-(methylamino)pyrimidin-4-yl]-1-naphthyl}-N~2~-pyridin-3-ylglycinamide]",75,65
"CNc1nccc(-c2cc(NC(=O)CNc3nc4ccccc4n3C)c3cc(OC)ccc3c2)n1 [Compound 58, N-{7-methoxy-3-[2-(methylamino)pyrimidin-4-yl]-1-naphthyl}-N~2~-(1-methyl-1H-benzimidazol-2-yl)glycinamide]",98,99
"CNc1nccc(-c2cc(NC(=O)CN3CCN(CCOC)CC3)c3cc(OC)ccc3c2)n1 [Compound 59, 2-[4-(2-methoxyethyl)piperazin-1-yl]-N-{7-methoxy-3-[2-(methylamino)pyrimidin-4-yl]-1-naphthyl}acetamide]",97,98
"CNc1nccc(-c2cc(NC(=O)CN3CCN(CCN4CCCC4)CC3)c3cc(OC)ccc3c2)n1 [Compound 64, N-{7-methoxy-3-[2-(methylamino)pyrimidin-4-yl]-1-naphthyl}-2-[4-(2-pyrrolidin-1-ylethyl)piperazin-1-yl]acetamide]",89,71
"CNc1nccc(-c2cc(NC(=O)CN3CCN(CCCN(C)C)CC3)c3cc(OC)ccc3c2)n1 [Compound 65, 2-{4-[3-(dimethylamino)propyl]piperazin-1-yl}-N-{7-methoxy-3-[2-(methylamino)pyrimidin-4-yl]-1-naphthyl}acetamide]",98,98
"CNc1nccc(-c2cc(NC(=O)CN3CCN(CCN(C)C)CC3)c3cc(OC)ccc3c2)n1 [Compound 67, 2-{4-[2-(dimethylamino)ethyl]piperazin-1-yl}-N-{7-methoxy-3-[2-(methylamino)pyrimidin-4-yl]-1-naphthyl}acetamide]",31,53
"CCN(CC)CCCCNCC(=O)Nc1cc(-c2ccnc(NC)n2)cc2ccc(OC)cc12 [Compound 73, N~2~-[4-(diethylamino)butyl]-N-{7-methoxy-3-[2-(methylamino)pyrimidin-4-yl]-1-naphthyl}glycinamide]",98,98
"CNc1nccc(-c2cc(NC(=O)CN3CCN(c4nccc(C(F)(F)F)n4)CC3)c3cc(OC)ccc3c2)n1 [Compound 75, N-{7-methoxy-3-[2-(methylamino)pyrimidin-4-yl]-1-naphthyl}-2-{4-[4-(trifluoromethyl)pyrimidin-2-yl]piperazin-1-yl}acetamide]",97,98
"CNc1nccc(-c2cc(NC(=O)CNCCN3CCOCC3)c3cc(OC)ccc3c2)n1 [Compound 78, N-{7-methoxy-3-[2-(methylamino)pyrimidin-4-yl]-1-naphthyl}-N~2~-(2-morpholin-4-ylethyl)glycinamide]",55,48
"CNc1nccc(-c2cc(NC(=O)CN3CCN(CC(=O)N(C)c4ccccc4)CC3)c3cc(OC)ccc3c2)n1 [Compound 79, 2-{4-[2-({7-methoxy-3-[2-(methylamino)pyrimidin-4-yl]-1-naphthyl}amino)-2-oxoethyl]piperazin-1-yl}-N-methyl-N-phenylacetamide]",98,99
"CNc1nccc(-c2cc(NC(=O)CN3CCN(CCn4cccc4)CC3)c3cc(OC)ccc3c2)n1 [Compound 82, N-{7-methoxy-3-[2-(methylamino)pyrimidin-4-yl]-1-naphthyl}-2-{4-[2-(1H-pyrrol-1-yl)ethyl]piperazin-1-yl}acetamide]",96,80
"CNc1nccc(-c2cc(NC(=O)CN3CCN(C4CCN(C)CC4)CC3)c3cc(OC)ccc3c2)n1 [Compound 83, N-{7-methoxy-3-[2-(methylamino)pyrimidin-4-yl]-1-naphthyl}-2-[4-(1-methylpiperidin-4-yl)piperazin-1-yl]acetamide]",99,99
"CNc1nccc(-c2cc(NC(=O)CNCCOC)c3cc(OC)ccc3c2)n1 [Compound 85, N~2~-(2-methoxyethyl)-N-{7-methoxy-3-[2-(methylamino)pyrimidin-4-yl]-1-naphthyl}glycinamide]",98,90
"COc1ccc2cc(-c3ccnc(NCCN(C)C)n3)cc(NC(=O)OC(C)(C)C)c2c1 [Compound 86, tert-butyl [3-(2-{[2-(dimethylamino)ethyl]amino}pyrimidin-4-yl)-7-methoxy-1-naphthyl]carbamate]",31,67
"COc1ccc(CCNc2nccc(-c3cc(NC(=O)OC(C)(C)C)c4cc(OC)ccc4c3)n2)cc1 [Compound 88, tert-butyl [7-methoxy-3-(2-{[2-(4-methoxyphenyl)ethyl]amino}pyrimidin-4-yl)-1-naphthyl]carbamate]",90,64
"CCN1CCCC(Nc2nccc(-c3cc(NC(=O)OC(C)(C)C)c4cc(OC)ccc4c3)n2)C1 (stereo not shown) [Compound 91, tert-butyl (3-{2-[(1-ethylpiperidin-3-yl)amino]pyrimidin-4-yl}-7-methoxy-1-naphthyl)carbamate]",97,85
"COc1ccc2cc(-c3ccnc(NCCc4ccccc4OC)n3)cc(NC(=O)OC(C)(C)C)c2c1 [Compound 92, tert-butyl [7-methoxy-3-(2-{[2-(2-methoxyphenyl)ethyl]amino}pyrimidin-4-yl)-1-naphthyl]carbamate]",98,99
"COc1ccc2cc(-c3ccnc(NCc4cncn4C)n3)cc(NC(=O)OC(C)(C)C)c2c1 [Compound 93, tert-butyl [7-methoxy-3-(2-{[(1-methyl-1H-imidazol-5-yl)methyl]amino}pyrimidin-4-yl)-1-naphthyl]carbamate]",96,72
"COc1ccc2cc(-c3ccnc(NCCc4cccc(OC)c4OC)n3)cc(NC(=O)OC(C)(C)C)c2c1 [Compound 94, tert-butyl [3-(2-{[2-(2,3-dimethoxyphenyl)ethyl]amino}pyrimidin-4-yl)-7-methoxy-1-naphthyl]carbamate]",37,35
"COc1ccc2cc(-c3ccnc(NCCc4cccnc4)n3)cc(NC(=O)OC(C)(C)C)c2c1 [Compound 98, tert-butyl (7-methoxy-3-{2-[(2-pyridin-3-ylethyl)amino]pyrimidin-4-yl}-1-naphthyl)carbamate]",98,86
"COc1cccc(CNc2nccc(-c3cc(NC(=O)OC(C)(C)C)c4cc(OC)ccc4c3)n2)c1 [Compound 99, tert-butyl (7-methoxy-3-{2-[(3-methoxybenzyl)amino]pyrimidin-4-yl}-1-naphthyl)carbamate]",97,98
"COCCNc1nccc(-c2cc(NC(=O)OC(C)(C)C)c3cc(OC)ccc3c2)n1 [Compound 100, tert-butyl (7-methoxy-3-{2-[(2-methoxyethyl)amino]pyrimidin-4-yl}-1-naphthyl)carbamate]",70,31
"COc1ccc2cc(-c3ccnc(NC4CCN(Cc5ccccc5)CC4)n3)cc(NC(=O)OC(C)(C)C)c2c1 [Compound 101, tert-butyl (3-{2-[(1-benzylpiperidin-4-yl)amino]pyrimidin-4-yl}-7-methoxy-1-naphthyl)carbamate]",96,98
"COc1ccc2cc(-c3ccnc(NC4CC(C)(C)N(C)C(C)(C)C4)n3)cc(NC(=O)OC(C)(C)C)c2c1 [Compound 103, tert-butyl (7-methoxy-3-{2-[(1,2,2,6,6-pentamethylpiperidin-4-yl)amino]pyrimidin-4-yl}-1-naphthyl)carbamate]",74,89
